Data as given in ChEMBL document CHEMBL1145379 (J Med Chem, 2007).

Experiments:
Coagulation factor X = Coagulation factor X (Homo sapiens, UniProt P00742); assay: Inhibition of human F10a; conditions: read-out: Ki app
Prothrombin = Prothrombin (Homo sapiens, UniProt P00734); assay: Inhibition of human F2a; conditions: read-out: Ki app
Plasma = assay: Anticoagulant potency in human plasma assessed as concentration for doubling of prothrombin time; assay type: functional

Chain of Coagulation factor X (P00742 41-179 limits assumed): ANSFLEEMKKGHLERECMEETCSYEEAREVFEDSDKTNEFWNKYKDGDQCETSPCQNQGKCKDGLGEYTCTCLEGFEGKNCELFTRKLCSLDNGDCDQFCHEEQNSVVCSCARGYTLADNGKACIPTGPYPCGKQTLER
Chain of Coagulation factor X (P00742 235-488 limits assumed): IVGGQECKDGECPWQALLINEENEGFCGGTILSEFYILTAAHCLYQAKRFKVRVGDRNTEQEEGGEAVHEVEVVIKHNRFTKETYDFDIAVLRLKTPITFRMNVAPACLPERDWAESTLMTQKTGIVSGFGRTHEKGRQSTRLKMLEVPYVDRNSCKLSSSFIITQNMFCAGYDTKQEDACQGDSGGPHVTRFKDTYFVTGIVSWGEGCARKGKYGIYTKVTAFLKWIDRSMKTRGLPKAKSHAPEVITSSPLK

Row | SMILES | Ki (Coagulation factor X) | Ki (Prothrombin) | Activity (Plasma)
1 | COc1cc(Cl)cc(C(=O)Nc2ccc(Cl)cn2)c1NC(=O)c1scc(CN2CCN=C2C)c1Cl | ≤ 0.01 nM | 3300 nM | 0.32 µM
2 | COc1cc(Cl)cc(C(=O)Nc2ccc(Cl)cn2)c1NC(=O)c1scc(CN(C)C2=NCC(C)O2)c1Cl (configuration not stated) | 0.12 nM | 410 nM | 1.2 µM
3 | COc1cc(Cl)cc(C(=O)Nc2ccc(Cl)cn2)c1NC(=O)c1scc(CN(C)C(=O)NCCN2CCCC2)c1Cl | 0.036 nM | 140 nM | 1.1 µM
4 | COc1cc(Cl)cc(C(=O)Nc2ccc(Cl)cn2)c1NC(=O)c1scc(CN2CCOCC2)c1Cl | 1.4 nM | 1400 nM | 4.9 µM
5 | COc1cc(Cl)cc(C(=O)Nc2ccc(Cl)cn2)c1NC(=O)c1scc(Cn2ccnc2NC(C)C)c1Cl | 0.008 nM | 1200 nM | 2.3 µM
6 | COc1cc(Cl)cc(C(=O)Nc2ccc(Cl)cn2)c1NC(=O)c1scc(CN2CC(=O)NC2=N)c1Cl | 0.034 nM | 340 nM | 3.3 µM
7 | COc1cc(Cl)cc(C(=O)Nc2ccc(Cl)cn2)c1NC(=O)c1scc(CN(C)C2=NCCS2)c1Cl | 0.024 nM | 100 nM | 1.8 µM
8 | CCN(Cc1csc(C(=O)Nc2c(OC)cc(Cl)cc2C(=O)Nc2ccc(Cl)cn2)c1Cl)C1=NCCO1 | 0.012 nM | 470 nM | 0.57 µM
9 | COc1cc(Cl)cc(C(=O)Nc2ccc(Cl)cn2)c1NC(=O)c1scc(CN(CC(F)(F)F)C2=NCCO2)c1Cl | 2.2 nM | > 5000 nM | 28 µM
10 | COc1cc(Cl)cc(C(=O)Nc2ccc(Cl)cn2)c1NC(=O)c1scc(CN2CCC(O)CC2)c1Cl | 2.2 nM | 770 nM | 3.2 µM
11 | COc1cc(Cl)cc(C(=O)Nc2ccc(Cl)cn2)c1NC(=O)c1scc(CN2CCOC2=N)c1Cl | ≤ 0.01 nM | 1100 nM | 0.26 µM
12 | COc1cc(Cl)cc(C(=O)Nc2ccc(Cl)cn2)c1NC(=O)c1scc(CNC(C)C)c1Cl | 1.4 nM | 5400 nM | –
13 | CCN(Cc1csc(C(=O)Nc2c(OC)cc(Cl)cc2C(=O)Nc2ccc(Cl)cn2)c1Cl)C1=NC(C)CO1 (configuration not stated) | 0.031 nM | 580 nM | 3.8 µM
14 | COc1cc(Cl)cc(C(=O)Nc2ccc(Cl)cn2)c1NC(=O)c1scc(CN(C)C(C)=N)c1Cl | ≤ 0.01 nM | 920 nM | 0.25 µM
15 | COc1cc(Cl)cc(C(=O)Nc2ccc(Cl)cn2)c1NC(=O)c1scc(CN(C)S(C)(=O)=O)c1Cl | 0.045 nM | 340 nM | 2.2 µM
16 | CCN(C)Cc1csc(C(=O)Nc2c(OC)cc(Cl)cc2C(=O)Nc2ccc(Cl)cn2)c1Cl | 0.22 nM | 1700 nM | 1.4 µM
17 | COc1cc(Cl)cc(C(=O)Nc2ccc(Cl)cn2)c1NC(=O)c1scc(CN(C)CCCN(C)C)c1Cl | 0.024 nM | 300 nM | 0.24 µM
18 | COc1cc(Cl)cc(C(=O)Nc2ccc(Cl)cn2)c1NC(=O)c1scc(CN(C)C2=NCCC2)c1Cl | 0.004 nM | 970 nM | 0.4 µM
19 | CCNCc1csc(C(=O)Nc2c(OC)cc(Cl)cc2C(=O)Nc2ccc(Cl)cn2)c1Cl | 0.4 nM | 2600 nM | 2.2 µM
20 | COc1cc(Cl)cc(C(=O)Nc2ccc(Cl)cn2)c1NC(=O)c1scc(CN2CCNC2=N)c1Cl | ≤ 0.01 nM | 1500 nM | 0.27 µM
21 | COc1cc(Cl)cc(C(=O)Nc2ccc(Cl)cn2)c1NC(=O)c1scc(CN2CCN=C2SC)c1Cl | 0.004 nM | 2200 nM | 0.53 µM
22 | COc1cc(Cl)cc(C(=O)Nc2ccc(Cl)cn2)c1NC(=O)c1scc(CN2CCSC2=N)c1Cl | ≤ 0.01 nM | 2600 nM | 1.4 µM
23 | COc1cc(Cl)cc(C(=O)Nc2ccc(Cl)cn2)c1NC(=O)c1scc(CN(C2=NCCO2)C(C)(C)C)c1Cl | 0.12 nM | 1700 nM | –
